# Laboratory results: ChEMBL document CHEMBL1667821, “Synthesis and galectin-binding activities of mercaptododecyl glycosides containing a terminal β-galactosyl group” (Bioorg Med Chem Lett, 2011)
# “And” between values parts separate entries of the source, which are not always exact repeats. Equal entries are not always repeated. The source made the active and inactive calls. The calls are words filed in the database; no cut-off is given here.
# Assays:
# [1] = target: Galectin-1 (Homo sapiens) (UniProt P09382); assay: Binding affinity to human galectin-1 by surface plasmon resonance method
# [2] = target: T1, Galectin-2 (Homo sapiens) (UniProt P05162); assay: Binding affinity to human galectin-2 by surface plasmon resonance method
# T1 sequence (whole entry): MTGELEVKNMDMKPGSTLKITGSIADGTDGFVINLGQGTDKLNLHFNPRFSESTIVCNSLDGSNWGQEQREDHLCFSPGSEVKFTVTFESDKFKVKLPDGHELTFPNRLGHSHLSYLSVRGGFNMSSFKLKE
# [3] = target: Galectin-3 (Homo sapiens, UniProt P17931); assay: Binding affinity to human galectin-3 by surface plasmon resonance method
# [4] = target: T2, Galectin-4 (Homo sapiens) (UniProt P56470); assay: Binding affinity to human galectin-4 by surface plasmon resonance method
# T2 sequence (whole entry): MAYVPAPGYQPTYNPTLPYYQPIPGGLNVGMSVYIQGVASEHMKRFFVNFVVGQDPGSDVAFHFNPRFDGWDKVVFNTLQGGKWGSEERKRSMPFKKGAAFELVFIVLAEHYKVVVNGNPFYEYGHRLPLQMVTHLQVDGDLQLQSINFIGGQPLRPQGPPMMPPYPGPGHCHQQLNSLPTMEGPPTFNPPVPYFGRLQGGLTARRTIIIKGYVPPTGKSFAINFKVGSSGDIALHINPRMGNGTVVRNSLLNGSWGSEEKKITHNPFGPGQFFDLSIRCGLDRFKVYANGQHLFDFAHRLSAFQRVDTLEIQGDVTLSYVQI
# [5] = target: Galectin-7 (Homo sapiens) (UniProt P47929); assay: Binding affinity to human galectin-7 by surface plasmon resonance method
# [6] = target: T3, Galectin-8 (Homo sapiens) (UniProt O00214); assay: Binding affinity to human galectin-8 by surface plasmon resonance method
# T3 sequence (whole entry): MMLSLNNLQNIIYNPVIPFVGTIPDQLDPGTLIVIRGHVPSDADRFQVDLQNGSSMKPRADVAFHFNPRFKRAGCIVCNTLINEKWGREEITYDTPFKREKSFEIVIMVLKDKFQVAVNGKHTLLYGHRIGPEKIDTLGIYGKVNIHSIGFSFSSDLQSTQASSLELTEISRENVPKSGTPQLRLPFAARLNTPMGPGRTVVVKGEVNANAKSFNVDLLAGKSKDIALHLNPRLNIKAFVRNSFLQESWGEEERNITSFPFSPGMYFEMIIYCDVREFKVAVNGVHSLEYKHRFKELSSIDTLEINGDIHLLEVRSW
# [7] = target: T2, Galectin-4 (Homo sapiens); assay: (§1) Binding affinity to human galectin-4 component 1 by surface plasmon resonance method
# [8] = target: T4, Galectin-4 (Homo sapiens, UniProt P56470); assay: as §1
# T4 sequence (P56470 whole entry): T2 sequence (whole entry)
# [9] = target: T2, Galectin-4 (Homo sapiens); assay: (§2) Binding affinity to human galectin-4 component 2 by surface plasmon resonance method
# [10] = target: T4, Galectin-4; assay: as §2
# [11] = target: T3, Galectin-8 (Homo sapiens); assay: (§3) Binding affinity to human galectin-8 component 1 by surface plasmon resonance method
# [12] = target: T5, Galectin-8 (Homo sapiens, UniProt O00214); assay: as §3
# T5 sequence (O00214 whole entry): T3 sequence (whole entry)
# [13] = target: T3, Galectin-8 (Homo sapiens); assay: (§4) Binding affinity to human galectin-8 component 2 by surface plasmon resonance method
# [14] = target: T5, Galectin-8; assay: as §4
# Chain of Galectin-3 (P17931 whole entry): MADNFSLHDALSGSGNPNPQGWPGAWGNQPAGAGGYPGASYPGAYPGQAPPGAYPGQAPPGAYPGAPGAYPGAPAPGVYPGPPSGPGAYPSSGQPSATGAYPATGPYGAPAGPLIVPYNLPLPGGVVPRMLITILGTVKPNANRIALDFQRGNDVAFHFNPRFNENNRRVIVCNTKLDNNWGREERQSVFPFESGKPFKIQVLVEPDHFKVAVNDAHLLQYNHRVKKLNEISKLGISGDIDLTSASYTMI
# Chain of Galectin-7 (Homo sapiens) (P47929 whole entry): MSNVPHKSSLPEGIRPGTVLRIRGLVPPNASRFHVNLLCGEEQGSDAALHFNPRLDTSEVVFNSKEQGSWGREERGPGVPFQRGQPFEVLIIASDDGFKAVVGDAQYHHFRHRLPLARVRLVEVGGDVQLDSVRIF
# Chain of Galectin-1 (Homo sapiens) (P09382 whole entry): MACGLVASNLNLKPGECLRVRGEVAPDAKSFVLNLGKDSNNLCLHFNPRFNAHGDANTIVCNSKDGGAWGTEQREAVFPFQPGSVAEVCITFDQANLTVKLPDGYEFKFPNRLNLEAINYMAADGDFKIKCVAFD
Activity [1] [a.u.],Activity [2],Activity [3],Ka [3] [M⁻¹ s⁻¹],Kd [3] [µM],Kdiss [3],Activity [4],Activity [5],Activity [6],Ka [7] [M⁻¹ s⁻¹],Kdiss [7] [×10⁻³ /s],Kd [8],Ka [9] [M⁻¹ s⁻¹],Kdiss [9],Kd [10],Ka [11] [M⁻¹ s⁻¹],Kdiss [11],Kd [12],Ka [13] [M⁻¹ s⁻¹],Kdiss [13],Structure (SMILES),also measured
17.8,11 a.u.,135 a.u.,1900,1.43,2.72 ×10⁻³ /s,345 a.u.,inactive,74.5 a.u.,4630,1.41,0.3 µM and 0.304 µM,65200,3.78 ×10⁻³ /s,0.058 µM,18600,6.85 ×10⁻² /s,0.037 µM and 0.0369 µM,35500,1.11 ×10⁻¹ /s,OC[C@H]1O[C@@H](O[C@H]2[C@H](O)C[C@@H](OCCCCCCCCCCCCS)O[C@@H]2CO)[C@H](O)[C@@H](O)[C@H]1O,Kd [14]: 0.031 µM and 0.0313 µM
25.1,13.4 a.u.,5.1 a.u.,,,,Active,inactive,Active,,,,,,,,,,,,OC[C@H]1O[C@@H](O[C@H]2C=C[C@@H](OCCCCCCCCCCCCS)O[C@@H]2CO)[C@H](O)[C@@H](O)[C@H]1O,
9.5,2 a.u.,82.3 a.u.,1760,1.06,1.86 ×10⁻³ /s,457 a.u.,4.2 a.u.,368 a.u.,13000,1.76,0.14 µM and 0.136 µM,172000,1.45 ×10⁻² /s,0.085 µM and 0.0847 µM,8970,1.39 ×10⁻⁵ /s,0.0016 µM and 0.00155 µM,9.61e+06,2.37 ×10⁻¹ /s,OC[C@H]1OC(O[C@H]2[C@H](O)[C@@H](O)[C@H](OCCCCCCCCCCCCS)O[C@@H]2CO)[C@H](O)[C@@H](O)[C@H]1O (some centres undefined),Kd [14]: 0.025 µM and 0.0246 µM
4.1,inactive,167 a.u.,5670,2.2,1.25 ×10⁻² /s,462 a.u.,0.8 a.u.,163 a.u.,2330,2.92,1.26 µM,111000,8.6 ×10⁻² /s,0.78 µM and 0.777 µM,9370,2.18 ×10⁻⁶ /s,0.00023 µM and 0.000233 µM,48700,2.39 ×10⁻³ /s,CC(=O)N[C@H]1[C@@H](OCCCCCCCCCCCCS)O[C@H](CO)[C@@H](O[C@@H]2O[C@H](CO)[C@H](O)[C@H](O)[C@H]2O)[C@@H]1O,
3.4,3.8 a.u.,inactive,,,,Active,inactive,34.1 a.u.,,,,,,,,,,,,OC[C@H]1O[C@@H](OCCCCCCCCCCCCS)[C@H](O)[C@@H](O)[C@H]1O,
